Data reported in PubChem BioAssay (NCI).
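Step 1: Grow cells in 96-well plates. Step 2: Expose to compound for 48 hours at 5 concentrations. Step 3: Interpolate endpoints linearly; if unreached, use highest concentration. Abbreviation: GI50, concentration required for 50% inhibition of growth. TGI: concentration producing complete growth inhibition.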

Columns and labels:
Test in all cases: growth of human tumour cells (NCI), 48 h
RPMI-8226 leukemia = test system: RPMI-8226 leukemia
NCI-H226 lung = test system: NCI-H226 lung
UACC-62 melanoma = test system: UACC-62 melanoma
786-0 renal = test system: 786-0 renal
SF-268 CNS = test system: SF-268 CNS
LOX IMVI melanoma = test system: LOX IMVI melanoma
U251 CNS = test system: U251 CNS
OVCAR-8 ovarian = test system: OVCAR-8 ovarian
HCT-15 colon = test system: HCT-15 colon
OVCAR-3 ovarian = test system: OVCAR-3 ovarian
COLO 205 colon = test system: COLO 205 colon
HT29 colon = test system: HT29 colon
RXF 393 renal = test system: RXF 393 renal
BT-549 breast = test system: BT-549 breast
KM12 colon = test system: KM12 colon
M14 melanoma = test system: M14 melanoma
NCI/ADR-RES ovarian = test system: NCI/ADR-RES ovarian
UO-31 renal = test system: UO-31 renal
SF-295 CNS = test system: SF-295 CNS
A549 NSCLC = test system: A549 NSCLC
EKVX NSCLC = test system: EKVX NSCLC
HCC-2998 colon = test system: HCC-2998 colon
MDA-MB-231 breast = test system: MDA-MB-231 breast
NCI-H522 lung = test system: NCI-H522 lung
HOP-92 NSCLC = test system: HOP-92 NSCLC
TK-10 renal = test system: TK-10 renal
MALME-3M melanoma = test system: MALME-3M melanoma
DU-145 prostate = test system: DU-145 prostate
SK-OV-3 ovarian = test system: SK-OV-3 ovarian

In the case of N#Cc1cc(-c2ccnc(Nc3ccc(NC(=O)CCl)cc3)n2)ccc1N1CCCC1, the GI50 (RPMI-8226 leukemia) is reported as 1700 nM, the TGI (RPMI-8226 leukemia) is reported as 22700 nM and the GI50 (NCI-H226 lung) is reported as 723 nM. For the same molecule, the TGI (NCI-H226 lung) was 1660 nM, the GI50 (UACC-62 melanoma) was 2220 nM and the TGI (UACC-62 melanoma) was 5990 nM. For the same molecule, the GI50 (786-0 renal) was 649 nM, the TGI (786-0 renal) was 6140 nM and the GI50 (SF-268 CNS) was 1380 nM. The TGI (SF-268 CNS) was 9400 nM, the GI50 (LOX IMVI melanoma) was 450 nM and the TGI (LOX IMVI melanoma) was 865 nM. It also gave a GI50 (U251 CNS) of 3350 nM, a TGI (U251 CNS) of 8090 nM and a GI50 (OVCAR-8 ovarian) of 1150 nM. For the same molecule, the TGI (OVCAR-8 ovarian) was > 25000 nM, the GI50 (HCT-15 colon) was 734 nM and the TGI (HCT-15 colon) was 3000 nM. It also gave a GI50 (OVCAR-3 ovarian) of 2900 nM, a TGI (OVCAR-3 ovarian) of 7590 nM and a GI50 (COLO 205 colon) of 2870 nM. It also gave a TGI (COLO 205 colon) of 7170 nM, a GI50 (HT29 colon) of 680 nM and a TGI (HT29 colon) of 4800 nM. It also gave a GI50 (RXF 393 renal) of 779 nM, a TGI (RXF 393 renal) of 2690 nM and a GI50 (BT-549 breast) of 708 nM. For the same molecule, the TGI (BT-549 breast) was 2250 nM, the GI50 (KM12 colon) was 3840 nM and the TGI (KM12 colon) was 10200 nM. For the same molecule, the GI50 (M14 melanoma) was 646 nM, the TGI (M14 melanoma) was 1490 nM and the GI50 (NCI/ADR-RES ovarian) was 1140 nM. The TGI (NCI/ADR-RES ovarian) was > 25000 nM, the GI50 (UO-31 renal) was 1070 nM and the TGI (UO-31 renal) was 4290 nM. For the same molecule, the GI50 (SF-295 CNS) was 5110 nM, the TGI (SF-295 CNS) was 13900 nM and the GI50 (A549 NSCLC) was 5270 nM. The TGI (A549 NSCLC) was 14700 nM, the GI50 (EKVX NSCLC) was 22600 nM and the TGI (EKVX NSCLC) was > 25000 nM. For the same molecule, the GI50 (HCC-2998 colon) was 4960 nM, the TGI (HCC-2998 colon) was 9140 nM and the GI50 (MDA-MB-231 breast) was 2820 nM. The TGI (MDA-MB-231 breast) was 10100 nM, the GI50 (NCI-H522 lung) was 378 nM and the TGI (NCI-H522 lung) was 831 nM. The GI50 (HOP-92 NSCLC) was 4220 nM, the TGI (HOP-92 NSCLC) was > 25000 nM and the GI50 (TK-10 renal) was 894 nM. It also gave a TGI (TK-10 renal) of 3480 nM, a GI50 (MALME-3M melanoma) of 1470 nM and a TGI (MALME-3M melanoma) of 6050 nM. It also gave a GI50 (DU-145 prostate) of 4170 nM, a TGI (DU-145 prostate) of 16500 nM and a GI50 (SK-OV-3 ovarian) of 2900 nM.
